ChEMBL document CHEMBL5465560, “Selectivity Literature for EUbOPEN Chemogenomic Library” (2024)
Values belong to the compound of their own block, whether it stands above or below them.

Legend:
[1] = molecular target: T1, Serine/threonine-protein kinase BRSK1 (Homo sapiens) (UniProt Q8TDC3); test: Selectivity interaction (Kinase panel (Invitrogen)) EUB0000639a BRSK1; conditions: at 200 nM
T1 sequence (whole entry): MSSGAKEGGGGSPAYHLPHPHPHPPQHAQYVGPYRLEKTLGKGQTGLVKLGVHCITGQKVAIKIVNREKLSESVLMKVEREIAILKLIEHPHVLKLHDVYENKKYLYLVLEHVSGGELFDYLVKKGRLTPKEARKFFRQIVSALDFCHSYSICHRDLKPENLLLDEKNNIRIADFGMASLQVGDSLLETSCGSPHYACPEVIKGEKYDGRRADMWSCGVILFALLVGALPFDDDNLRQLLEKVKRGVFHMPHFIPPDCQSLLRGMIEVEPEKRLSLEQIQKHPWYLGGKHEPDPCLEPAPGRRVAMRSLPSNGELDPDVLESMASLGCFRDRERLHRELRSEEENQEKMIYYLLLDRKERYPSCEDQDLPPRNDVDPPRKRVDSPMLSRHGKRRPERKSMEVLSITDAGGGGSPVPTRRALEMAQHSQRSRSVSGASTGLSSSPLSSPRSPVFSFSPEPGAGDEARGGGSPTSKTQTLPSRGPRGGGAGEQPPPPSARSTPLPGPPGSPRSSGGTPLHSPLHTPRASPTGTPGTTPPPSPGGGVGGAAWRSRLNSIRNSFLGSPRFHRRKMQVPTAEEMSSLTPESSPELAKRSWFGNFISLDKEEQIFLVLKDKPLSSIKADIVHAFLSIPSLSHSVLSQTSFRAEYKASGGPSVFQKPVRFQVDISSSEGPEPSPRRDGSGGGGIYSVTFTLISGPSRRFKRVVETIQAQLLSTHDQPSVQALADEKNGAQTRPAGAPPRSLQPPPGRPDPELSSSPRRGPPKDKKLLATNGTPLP

[2] = molecular target: Serine/threonine-protein kinase 33 (Homo sapiens) (UniProt Q9BYT3); conditions: at 10 µM
Sequence of Serine/threonine-protein kinase 33 (Homo sapiens) (Q9BYT3 whole entry, looked up): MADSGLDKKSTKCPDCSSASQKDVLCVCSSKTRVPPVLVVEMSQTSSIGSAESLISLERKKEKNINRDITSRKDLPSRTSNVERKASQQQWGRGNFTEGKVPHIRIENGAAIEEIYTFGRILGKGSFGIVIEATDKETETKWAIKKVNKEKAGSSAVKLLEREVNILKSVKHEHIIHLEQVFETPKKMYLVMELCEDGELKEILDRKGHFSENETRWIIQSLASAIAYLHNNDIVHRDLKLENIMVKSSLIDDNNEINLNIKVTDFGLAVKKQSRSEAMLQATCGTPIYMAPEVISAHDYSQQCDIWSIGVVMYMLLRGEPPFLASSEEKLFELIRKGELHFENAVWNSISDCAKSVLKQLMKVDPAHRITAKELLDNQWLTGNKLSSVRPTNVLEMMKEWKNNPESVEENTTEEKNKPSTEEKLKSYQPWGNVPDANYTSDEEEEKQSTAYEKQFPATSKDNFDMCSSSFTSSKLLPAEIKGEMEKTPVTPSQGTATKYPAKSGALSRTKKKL

[3] = molecular target: T2, Ephrin type-A receptor 6 (Homo sapiens) (UniProt Q9UF33); test: Selectivity interaction (KinomeScan (DiscoverX)) EUB0000229b EPHA6; conditions: at 10 µM
T2 sequence (whole entry): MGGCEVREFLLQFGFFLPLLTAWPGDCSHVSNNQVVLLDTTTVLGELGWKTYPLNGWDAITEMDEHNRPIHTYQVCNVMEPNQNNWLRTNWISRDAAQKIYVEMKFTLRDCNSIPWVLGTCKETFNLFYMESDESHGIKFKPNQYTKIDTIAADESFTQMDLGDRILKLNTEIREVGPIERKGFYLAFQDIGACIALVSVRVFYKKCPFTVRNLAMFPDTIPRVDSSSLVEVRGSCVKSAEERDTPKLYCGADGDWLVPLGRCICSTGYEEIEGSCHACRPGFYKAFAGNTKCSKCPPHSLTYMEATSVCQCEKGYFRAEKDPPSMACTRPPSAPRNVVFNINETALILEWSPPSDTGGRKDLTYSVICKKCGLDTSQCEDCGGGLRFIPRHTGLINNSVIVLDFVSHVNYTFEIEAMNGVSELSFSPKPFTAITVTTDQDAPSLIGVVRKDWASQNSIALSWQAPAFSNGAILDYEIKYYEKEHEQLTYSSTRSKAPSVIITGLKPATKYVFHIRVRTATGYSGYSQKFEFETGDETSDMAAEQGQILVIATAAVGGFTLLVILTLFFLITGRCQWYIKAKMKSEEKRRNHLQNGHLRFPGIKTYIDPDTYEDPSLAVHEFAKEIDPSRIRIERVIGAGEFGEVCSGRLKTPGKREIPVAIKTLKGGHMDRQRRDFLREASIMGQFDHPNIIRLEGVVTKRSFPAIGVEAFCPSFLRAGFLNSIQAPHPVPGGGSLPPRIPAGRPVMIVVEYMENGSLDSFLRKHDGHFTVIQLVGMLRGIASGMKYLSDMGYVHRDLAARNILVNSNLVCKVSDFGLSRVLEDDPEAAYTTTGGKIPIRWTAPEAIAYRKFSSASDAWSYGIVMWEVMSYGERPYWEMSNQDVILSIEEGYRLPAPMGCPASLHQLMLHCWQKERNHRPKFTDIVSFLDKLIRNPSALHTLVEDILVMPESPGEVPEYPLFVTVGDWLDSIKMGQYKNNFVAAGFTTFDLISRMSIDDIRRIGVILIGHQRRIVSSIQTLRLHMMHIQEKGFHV

[4] = molecular target: T3, Tyrosine-protein kinase JAK3 (Homo sapiens) (UniProt P52333); test: Selectivity interaction (ProQinase) EUB0000171b JAK3
T3 sequence (whole entry): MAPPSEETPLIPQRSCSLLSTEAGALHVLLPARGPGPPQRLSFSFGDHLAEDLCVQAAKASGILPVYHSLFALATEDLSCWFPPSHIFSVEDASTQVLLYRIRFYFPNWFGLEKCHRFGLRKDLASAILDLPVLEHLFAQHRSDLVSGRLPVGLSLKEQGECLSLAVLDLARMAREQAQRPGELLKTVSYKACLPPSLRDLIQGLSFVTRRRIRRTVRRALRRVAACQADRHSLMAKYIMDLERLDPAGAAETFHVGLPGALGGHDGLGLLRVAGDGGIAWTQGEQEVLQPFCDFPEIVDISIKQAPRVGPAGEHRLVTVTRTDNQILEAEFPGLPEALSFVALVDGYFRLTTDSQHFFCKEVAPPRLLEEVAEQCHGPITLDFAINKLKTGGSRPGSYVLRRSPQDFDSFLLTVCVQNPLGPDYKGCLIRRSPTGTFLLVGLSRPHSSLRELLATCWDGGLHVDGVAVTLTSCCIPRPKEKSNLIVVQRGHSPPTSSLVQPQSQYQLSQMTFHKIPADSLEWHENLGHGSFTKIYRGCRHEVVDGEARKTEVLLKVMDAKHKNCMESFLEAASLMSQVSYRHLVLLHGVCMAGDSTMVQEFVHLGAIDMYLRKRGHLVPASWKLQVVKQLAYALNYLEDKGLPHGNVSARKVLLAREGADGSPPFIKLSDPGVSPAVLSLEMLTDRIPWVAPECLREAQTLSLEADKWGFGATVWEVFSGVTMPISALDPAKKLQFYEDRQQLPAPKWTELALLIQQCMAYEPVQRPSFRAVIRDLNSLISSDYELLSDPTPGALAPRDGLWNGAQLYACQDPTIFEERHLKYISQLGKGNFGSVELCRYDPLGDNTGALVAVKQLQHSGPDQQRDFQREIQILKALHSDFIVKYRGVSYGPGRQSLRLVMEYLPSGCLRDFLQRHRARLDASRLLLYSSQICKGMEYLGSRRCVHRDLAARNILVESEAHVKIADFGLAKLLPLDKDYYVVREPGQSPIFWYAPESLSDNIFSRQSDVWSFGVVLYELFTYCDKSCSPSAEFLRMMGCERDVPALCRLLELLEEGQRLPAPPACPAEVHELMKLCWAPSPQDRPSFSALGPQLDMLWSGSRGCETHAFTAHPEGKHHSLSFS

% of inhibition [1]: 23.6%
Structure (SMILES): CC[C@@H]1[C@H](F)C(=O)N[C@@H]1COc1nccc2cc(C(N)=O)c(OC)cc12 [ZIMLOVISERTIB]

% of control [2]: 100%
Structure (SMILES): CCN(CC)CCCCNc1ncc2cc(-c3cc(OC)cc(OC)c3)c(NC(=O)NC(C)(C)C)nc2n1

Structure (SMILES): COc1cc(N(C)c2ccnc3ccc(C(F)(F)F)cc23)cc(OC)c1OC
% binding [3]: 97%

% of control ([4]; at 1 µM): 79% | % of control ([4]; at 5 µM): 54%
Structure (SMILES): C=CC(=O)Nc1cccc(C(=O)Nc2ccc(Nc3cc(-c4[nH]c(SC)nc4C)ccn3)cc2)c1
